The values below come from patent US20250339391A1, “METHODS FOR EFFECTIVE MANAGEMENT OF PAIN” (South Rampart Pharma, Inc., priority 2024, published 2025).

Molecules are shown by their SMILES. Entries after “also recorded” stand apart in the source; their conditions may differ.

One data set concerns male CD1 mice. Nature of the data set: Baker yeast-induced hyperthermia antipyresis assay. To be noted: 15% yeast ip, drug 75 mg/kg per os. It counts as in vivo, mouse. The protocol:
(§1) Antipyresis experiments were carried out with n=60 CD-1 male mice weighing between 45-50 g. All mice were kept in a 12-h day/12-h night cycle with free access to food and water ad libitum. After habituating and acclimating the mice for a week, each mouse was briefly anesthetized for 1 min with 1% isoflurane and implanted subcutaneously a transmitter probe that records core body temperature—Implantable Programmable Temperature Transponder (IPTT-300) by Bio Medic Data Systems (BMDS), DE, USA. The mice were allowed to recover for at least one week from the surgery before any recordings were made and observed in their home cages prior to pyrogen challenge for inducing fever. Temperatures were recorded using the BMDS DAS-8027-IUS data reading system.
(15% yeast, […]) (MilliporeSigma, Billerica, MA, USA) was used to induce fever. All animals used in this assay were male CD1 mice, which were fasted overnight (15 h) before the start of the assay. Mice received either yeast in 0.9% saline (sterile) (vehicle) or just 0.9% saline as an ip injection. […] All mice that didn't show a significant change in body temperature or appeared sick post-pyrogen challenge were excluded (n=5) from subsequent drug administrations.
Drug injection/concentration: All drugs and vehicle (10% DMSO: 10% labrasol:80% PEG400) were administered by oral gavage, PO administration. […]

The next data set relates to CD-1 male mice. The experiment in a line: LPS fever induction antipyresis assay. It counts as in vivo, mouse. The following applies: LPS 100 μg/kg ip, drug 75 mg/kg po, 2 h post drug. The protocol: as §1
All mice were fasted overnight (15 h) with free access to water ad libitum prior to the pyrogen challenge. For the induction of fever, LPS from E. coli (100 μg/kg, 0111:B4) (MilliporeSigma, Billerica, MA, USA) was used. Mice received either LPS in 0.9% saline (sterile) (vehicle) or just 0.9% saline as an intraperitoneal (ip) injection.
Drug injection/concentration: All drugs and vehicle (10% DMSO: 10% labrasol:80% PEG400) were administered by oral gavage, PO dosing. Each dosing volume was ˜0.3-0.4 mL per mouse. […] We chose this dose to record antipyretic effect in a low dose that doesn't cause hypothermia in mice.

For the next data set, the system named is NAPQI. Nature of the data set: LC-MS/MS identification of serum NAPQI and novel benzoquinoimine. The following applies: CD-1 mice, 600 mg/kg, IP or per os. It counts as in vivo, mouse. The protocol: […] (NAPQI) was extracted from the serum by adding 3 volumes of ethyl-acetate to 1 volume of serum and storing them on ice for 30 min, followed by centrifugation at 3000 g for 30 min. Afterward, the supernatant was transferred into mass spectrometry vials and dried under N2 gas. The serum was then washed with another 3 volumes of ethyl-acetate, and the supernatant was added back to the same mass spectrometry vial, followed by evaporation under a stream of N2 gas. The sample was re-suspended with 50 μl of 1:1 MeOH:H2O for LC-MS/MS experimentation. The mass spectrophotometer was operated in multiple reaction monitoring (MRM) mode using positive ion electrospray. NAPQI was detected by monitoring the m/z transition 150.3→108.1. Pure NAPQI analytical standard (10 ng/mL) obtained from Cayman Chemical (Ann Arbor, MI) was used to characterize the full fragmentation pattern of NAPQI and determine the likely fragments.

The next data set concerns Sprague-Dawley rats. Nature of the data set: CFA-induced inflammatory pain / Hargreaves thermal sensitivity assay. The format is in vivo, rat. To be noted: for analgesia, paw withdrawal latencies: 100 mg/kg. From the text:
In these same cohorts of animals, we simultaneously measured their thermal nociception to hyperalgesia with the Hargreaves test using the plantar test apparatus (Ugo Basile 37570). In this experimental setup, the rodents are placed in plastic cages on top of a glass surface, and their hind paws are subjected to an infrared heat stimulus. One hind paw at a time is stimulated with the light source (noxious stimuli) until the animal retracts the paw from the glass surface because of the stimulus. Baseline withdrawal thresholds (latency) of both the right and left paws were recorded, and animals were assigned to different treatment groups so that each group had approximately equal withdrawal threshold averages in both paws. After baseline testing, treated animals received subcutaneous plantar injection (150 μl) of 50% CFA into the left hind paw, while control animals received a plantar injection (150 μl) of 0.9% NaCl into their left hind paw. CFA induces inflammation, resulting in a left hind paw that is hypersensitive to the thermal stimulus, while the right hind paw serves as a within-subject baseline for each animal. To obtain Hargreaves withdrawal latency recordings, each animal was placed in an individual plastic observation compartment on a glass platform, which provided access to the plantar surface of the hind paws from underneath. After acclimation to the environment for 30 min, thermal hypersensitivity was assessed by stimulating the mid-plantar area of each hind paw with a bright light source attached to the meter (Ugo Basile 37570) until animals withdrew the paw from the surface. The withdrawal threshold was defined as the average time (s) required for the rat to withdraw the stimulated paw. A brisk withdrawal of the paw (often followed by a sustained retraction and/or licking) was considered a positive response, but paw withdrawals due to locomotion or weight shifting were not counted. The Hargreaves studies were conducted with the plantar stimulation device that automatically registers the time (s) necessary to elicit paw withdrawal in order to eliminate bias in determining paw withdrawal thresholds. A cutoff of 20 s is pre-programmed so that the light source shuts off at that maximal period so as to not induce any burns on the plantar surface of the rodents. The Hargreaves test permits measurement of ipsilateral and contralateral heat thresholds, allowing each animal to serve as its own internal control in unilateral pain models. In addition, the Hargreaves test enables quantification of heat thresholds in unrestrained animals, reducing the likelihood of stress-induced responses.

Setting [1] is: young male and young female rats.

As for `CC(=O)Nc1ccc(O)cc1` [ApAP, acetaminophen], the “antipyresis, core body temperature” value in the data set on male CD1 mice was “subsequent reduction in core body temperature”. In the data set on CD-1 male mice, the antipyresis result was “comparable antipyresis”. Also, in the data set on NAPQI, the “serum NAPQI formation” value is recorded as “a NAPQI peak is seen; also recorded: significantly enhanced”. In addition, the “analgesia, paw withdrawal latencies” value in the data set on Sprague-Dawley rats (aged male rats) and with Sprague-Dawley rats (setting [1]) was “significant analgesia” in each case.

With `CCN(CC)C(=O)c1ccccc1S(=O)(=O)NCC(=O)Nc1ccc(O)cc1` [SRP-001, N,N-diethyl-2-[[2-(4-hydroxyanilino)-2-oxo-ethyl]sulfamoyl]benzamide], the “antipyresis, core body temperature” value in the data set on male CD1 mice was “subsequent reduction in core body temperature”. The antipyresis entry in the data set on CD-1 male mice is “comparable antipyresis”. In addition, the “serum NAPQI formation” value with NAPQI is given as “lack of formation of the toxic quinonimine metabolite NAPQI; also recorded: lack of production of NAPQI”. In addition, the “analgesia, paw withdrawal latencies” value in the data set on Sprague-Dawley rats (aged male rats) and in the data set on Sprague-Dawley rats (setting [1]) was “significant analgesia” each time. The “antinociception in Hargreaves assay” value with Sprague-Dawley rats (young female and male rats and aged male rats) was “Antinociception was also confirmed”.
